Several values for one entry are separate records, joined by “and”; a condition that tells them apart may be missing. Equal values may be shown once. Entries after “also recorded” stand apart in the source; their conditions may differ.
Target: SARS-CoV-2 PL^pro (Severe acute respiratory syndrome coronavirus 2, UniProt P0DTD1)
Assay: PL^pro enzymatic inhibition assay (FRET-based, Z-RLRGG-AMC substrate)
Assay type: biochemical
Details: Table 1 thiazole series; enzymatic inhibition assay, 25 °C, pH 7.5; uncertainty approx. 1.8-fold of Kd

| Structure (SMILES) | Kd |
| --- | --- |
| Cc1nc(N(CCC(=O)O)c2cccc3ccccc23)sc1C(=O)/C=C/c1ccccc1 [Compound 21a] | 110 µM |
| Cc1ccc(N(CCC(=O)O)c2nc(-c3ccc(C#N)cc3)c(/C=N\Nc3ccccc3)s2)cc1 [Compound 27c] | 15 µM |
| N#Cc1ccc(-c2csc(N(CCC(=O)O)c3cccc4ccccc34)n2)cc1 [Compound 6e] | 20 µM |
| O=C(O)CCNc1cccc2ccccc12 [Compound 1, 3-(naphtylamino]propanoic acid] | 68 µM |
| O=C(O)CCN(c1nc(C(=O)/C=C/c2ccccc2)c(C(=O)/C=C/c2ccccc2)s1)c1cccc2ccccc12 [Compound 31] | ≥ 50 µM |
| O=C(O)CCN(C1=NC(=O)C(=Cc2ccc(Br)cc2)S1)c1cccc2ccccc12 [Compound 13a] | 24 µM |
| O=C(O)CCN(c1nc(-c2ccc3ccccc3c2)cs1)c1cccc2ccccc12 [Compound 8] | 35 µM |
| NC(=S)N(CCC(=O)O)c1cccc2ccccc12 [Compound 2] | 29 µM |
| O=C(O)CCN(C1=NC(=O)CS1)c1cccc2ccccc12 [Compound 5] | > 200 µM |
| O=C(O)CCN(c1nc(-c2ccc(Cl)c(Cl)c2)cs1)c1cccc2ccccc12 [Compound 7] | ≥ 50 µM |
| COC(=O)C=C1SC(N(CCC(=O)O)c2cccc3ccccc23)=NC1=O [Compound 17] | > 200 µM |
| Cc1nc(N(CCC(=O)O)c2cccc3ccccc23)sc1C(=O)/C=C/c1cccc2ccccc12 [Compound 22] | 5.2 µM |
| O=C(O)CCN(c1nc(-c2ccc(Br)cc2)cs1)c1cccc2ccccc12 [Compound 6a] | ≥ 50 µM |
| Cc1ccc(N(CCC(=O)O)c2nc(-c3ccc(C#N)cc3)c(/C=N\NC(N)=S)s2)cc1 [Compound 28] | 8.8 µM |
| Cc1csc(N(CCC(=O)O)c2cccc3ccccc23)n1 [Compound 4] | 110 µM |
| O=C(O)CCN(C1=NC(=O)C(=Cc2ccc(Cl)cc2)S1)c1cccc2ccccc12 [Compound 13b] | ≥ 50 µM |
| O=C(O)CCN(C1=NC(=O)C(=Cc2ccccc2O)S1)c1cccc2ccccc12 [Compound 15] | ≥ 50 µM |
| C/C(=N/Nc1ccccc1)c1sc(N(CCC(=O)O)c2cccc3ccccc23)nc1C [Compound 23] | 75 µM |
| Cc1ccc(N(CCC(=O)O)c2nc(-c3ccc(C#N)cc3)c(C=O)s2)cc1 [Compound 29] | > 200 µM |

Same assay, conditions: Table 2 disulfide compounds; enzymatic inhibition assay, 25 °C, pH 7.5; PL^pro dialyzed to avoid DTT

| Structure (SMILES) | Kd |
| --- | --- |
| NNC(=O)CCNc1ccccc1SSc1ccccc1NCCC(=O)NN [Compound 34] | 0.43 µM |
| O=C1CCN(c2ccccc2SSc2ccccc2N2CCC(=O)NC2=O)C(=O)N1 [Compound 37] | 0.63 µM |
| O=C(CCNc1ccccc1SSc1ccccc1NCCC(=O)N/N=C/c1cccs1)N/N=C/c1cccs1 [Compound 35] | 2.5 µM |
| O=C(CNc1ccccc1SSc1ccccc1NCC(=O)c1ccccc1)c1ccccc1 [Compound 38] | 1.9 µM |
| Cc1ccc(C)n1NC(=O)CCNc1ccccc1SSc1ccccc1NCCC(=O)Nn1c(C)ccc1C [Compound 36] | 1.9 µM |
| O=C(O)CCNc1ccccc1SSc1ccccc1NCCC(=O)O [Compound 33] | 2 µM |
| Nc1ccccc1SSc1ccccc1N [Compound 32] | 0.54 µM |

Same assay, conditions: ratio of Kd values

| Structure (SMILES) | Fold more potent for PL^pro than M^pro |
| --- | --- |
| NNC(=O)CCNc1ccccc1SSc1ccccc1NCCC(=O)NN [Compound 34] | eight times |

Same assay, conditions: vs compound 4

| Structure (SMILES) | Fold stronger PL^pro affinity than compound 4 |
| --- | --- |
| Cc1nc(N(CCC(=O)O)c2cccc3ccccc23)sc1C(=O)/C=C/c1cccc2ccccc12 [Compound 22] | more than 20 fold |

Same assay, conditions: vs parent compound 3

| Structure (SMILES) | Fold weakening of PL^pro interaction compared to compound 3 |
| --- | --- |
| Cc1csc(N(CCC(=O)O)c2cccc3ccccc23)n1 [Compound 4] | 8 fold |

Same assay, conditions: vs starting compound 1

| Structure (SMILES) | Fold increase in PL^pro binding affinity compared to compound 1 |
| --- | --- |
| NC(=S)N(CCC(=O)O)c1cccc2ccccc12 [Compound 2] | 2 fold |

Target: T1, M^pro (Severe acute respiratory syndrome coronavirus 2, UniProt P0DTD1)
Assay: not given
Details: cited from earlier work

| Structure (SMILES) | Covalent interaction with cysteine residues of M^pro |
| --- | --- |
| CCN(CC)C(=S)SSC(=S)N(CC)CC [disulfiram] | interact covalently with cysteine residues of M^pro |

Target: T1, M^pro
Assay: not given
Assay type: binding
Details: no reducing agents; 1 h incubation at room temperature

| Structure (SMILES) | Covalent binding to M^pro by mass spectrometry |
| --- | --- |
| Nc1ccccc1SSc1ccccc1N [Compound 32] | covalent binding of 32 with PL^pro and M^pro was confirmed |

Same assay, conditions: protein/ligand molar ratio 1:10

| Structure (SMILES) | Mass shift of M^pro-compound adduct (major peak) |
| --- | --- |
| Nc1ccccc1SSc1ccccc1N [Compound 32] | 245.73 Da and 245.7 Da |

Target: PL^pro (Severe acute respiratory syndrome coronavirus 2, UniProt P0DTD1)
Assay: not given
Assay type: binding
Details: no reducing agents; 1 h incubation at room temperature

| Structure (SMILES) | Covalent binding to PL^pro by mass spectrometry |
| --- | --- |
| NNC(=O)CCNc1ccccc1SSc1ccccc1NCCC(=O)NN [Compound 34] | covalent binding of compound 34 to PLpro |
| Nc1ccccc1SSc1ccccc1N [Compound 32] | covalent binding of 32 with PL^pro and M^pro was confirmed |

Same assay, conditions: protein/ligand molar ratio 1:5 for 32

| Structure (SMILES) | Mass shift of PL^pro-compound adduct (major peak) |
| --- | --- |
| Nc1ccccc1SSc1ccccc1N [Compound 32] | 123.13 Da |

Target: SARS-CoV-2 M^pro (Severe acute respiratory syndrome coronavirus 2, UniProt P0DTD1)
Assay: biochemical
Assay type: biochemical
Details: not given

| Structure (SMILES) | Kd |
| --- | --- |
| Cc1nc(N(CCC(=O)O)c2cccc3ccccc23)sc1C(=O)/C=C/c1ccccc1 [Compound 21a] | > 200 µM |
| Cc1ccc(N(CCC(=O)O)c2nc(-c3ccc(C#N)cc3)c(/C=N\Nc3ccccc3)s2)cc1 [Compound 27c] | > 200 µM |
| N#Cc1ccc(-c2csc(N(CCC(=O)O)c3cccc4ccccc34)n2)cc1 [Compound 6e] | > 200 µM |
| O=C(O)CCNc1cccc2ccccc12 [Compound 1, 3-(naphtylamino]propanoic acid] | > 200 µM |
| O=C(O)CCN(c1nc(C(=O)/C=C/c2ccccc2)c(C(=O)/C=C/c2ccccc2)s1)c1cccc2ccccc12 [Compound 31] | ≥ 50 µM |
| O=C(O)CCN(C1=NC(=O)C(=Cc2ccc(Br)cc2)S1)c1cccc2ccccc12 [Compound 13a] | 6.5 µM |
| O=C(O)CCN(c1nc(-c2ccc3ccccc3c2)cs1)c1cccc2ccccc12 [Compound 8] | > 200 µM |
| NC(=S)N(CCC(=O)O)c1cccc2ccccc12 [Compound 2] | > 200 µM |
| O=C(O)CCN(C1=NC(=O)CS1)c1cccc2ccccc12 [Compound 5] | > 200 µM |
| O=C(O)CCN(c1nc(-c2ccc(Cl)c(Cl)c2)cs1)c1cccc2ccccc12 [Compound 7] | > 200 µM |
| COC(=O)C=C1SC(N(CCC(=O)O)c2cccc3ccccc23)=NC1=O [Compound 17] | > 200 µM |
| Cc1nc(N(CCC(=O)O)c2cccc3ccccc23)sc1C(=O)/C=C/c1cccc2ccccc12 [Compound 22] | 10 µM |
| O=C(O)CCN(c1nc(-c2ccc(Br)cc2)cs1)c1cccc2ccccc12 [Compound 6a] | > 200 µM |
| Cc1ccc(N(CCC(=O)O)c2nc(-c3ccc(C#N)cc3)c(/C=N\NC(N)=S)s2)cc1 [Compound 28] | ≥ 50 µM |
| Cc1csc(N(CCC(=O)O)c2cccc3ccccc23)n1 [Compound 4] | > 200 µM |
| O=C(O)CCN(C1=NC(=O)C(=Cc2ccc(Cl)cc2)S1)c1cccc2ccccc12 [Compound 13b] | > 200 µM |
| O=C(O)CCN(C1=NC(=O)C(=Cc2ccccc2O)S1)c1cccc2ccccc12 [Compound 15] | > 200 µM |
| C/C(=N/Nc1ccccc1)c1sc(N(CCC(=O)O)c2cccc3ccccc23)nc1C [Compound 23] | > 200 µM |
| Cc1ccc(N(CCC(=O)O)c2nc(-c3ccc(C#N)cc3)c(C=O)s2)cc1 [Compound 29] | > 200 µM |

Same assay, conditions: Table 2 disulfide compounds; enzymatic inhibition assay, 25 °C, pH 7.5

| Structure (SMILES) | Kd |
| --- | --- |
| NNC(=O)CCNc1ccccc1SSc1ccccc1NCCC(=O)NN [Compound 34] | 3.5 µM |
| O=C1CCN(c2ccccc2SSc2ccccc2N2CCC(=O)NC2=O)C(=O)N1 [Compound 37] | > 200 µM |
| O=C(CCNc1ccccc1SSc1ccccc1NCCC(=O)N/N=C/c1cccs1)N/N=C/c1cccs1 [Compound 35] | > 200 µM |
| O=C(CNc1ccccc1SSc1ccccc1NCC(=O)c1ccccc1)c1ccccc1 [Compound 38] | > 200 µM |
| Cc1ccc(C)n1NC(=O)CCNc1ccccc1SSc1ccccc1NCCC(=O)Nn1c(C)ccc1C [Compound 36] | > 200 µM |
| O=C(O)CCNc1ccccc1SSc1ccccc1NCCC(=O)O [Compound 33] | > 200 µM |
| Nc1ccccc1SSc1ccccc1N [Compound 32] | 2.8 µM |

Same assay, conditions: ratio of Kd values

| Structure (SMILES) | Fold more potent for M^pro inhibition than PL^pro |
| --- | --- |
| O=C(O)CCN(C1=NC(=O)C(=Cc2ccc(Br)cc2)S1)c1cccc2ccccc12 [Compound 13a] | 3.7 fold |

System: SARS-CoV-2
Assay: not given
Details: patients with mild-to-moderate COVID-19; cited from earlier work

| Structure (SMILES) | Antiviral efficacy in patients |
| --- | --- |
| Cn1cnc(Cn2c(=O)[nH]/c(=N\c3cc4cn(C)nc4cc3Cl)n(Cc3cc(F)c(F)cc3F)c2=O)n1 [S-217622] | rapid and favorable antiviral efficacy |

System: not given
Assay: not given
Details: not given

| Structure (SMILES) | melting point |
| --- | --- |
| O=C(O)CCN(C1=NC(=O)C(=Cc2ccccc2O)S1)c1cccc2ccccc12 [Compound 15] | 203 to 204 °C |

Target: wt PL^pro (Severe acute respiratory syndrome coronavirus 2, UniProt P0DTD1)
Assay: not given
Details: not given

| Structure (SMILES) | Thermal effect (Tm) on wild-type PL^pro |
| --- | --- |
| Nc1ccccc1SSc1ccccc1N [Compound 32] | strongly destabilized the native PL^pro; also recorded: thermal destabilization effect (Tm decrease) induced by 32 is seen only for wild-type PL^pro |

— PMC10488051, “Screening, Synthesis and Biochemical Characterization of SARS-CoV-2 Protease Inhibitors” (International Journal of Molecular Sciences, 2023)
